Data as given in patent publication US20240158446A1, “CYCLIC COMPOUND HAVING SELECTIVE INHIBITORY ACTION ON KRAS OVER HRAS AND NRAS” (CHUGAI SEIYAKU KABUSHIKI KAISHA, priority 2021, published 2024).
Read-outs that look alike come from different tables or passages of the source.

Key:
[1] = biological target: GDP-bound HRAS wild-type protein (Homo sapiens, UniProt P01112); assay: Binding to HRAS by surface plasmon resonance (SPR), Single Cycle Kinetics; conditions: for HRAS/KRAS (ratio of KD value for HRAS to KD value for KRAS) / HRAS/KRAS (KD ratio): SPR; for HRAS/KRAS (ratio of KD value for HRAS to KD value for KRAS): GDP-bound HRAS wild-type protein vs GDP-bound KRAS wild-type protein; for HRAS/KRAS (KD ratio): ratio of KD for GDP-bound HRAS wild-type protein to KD for KRAS; for HRAS/KRAS (ratio of KD value with respect to GDP-bound HRAS wild-type protein to KD value with respect to KRAS): SPR KD ratio HRAS/KRAS, class symbols
Chain of GDP-bound HRAS wild-type protein (P01112 whole entry): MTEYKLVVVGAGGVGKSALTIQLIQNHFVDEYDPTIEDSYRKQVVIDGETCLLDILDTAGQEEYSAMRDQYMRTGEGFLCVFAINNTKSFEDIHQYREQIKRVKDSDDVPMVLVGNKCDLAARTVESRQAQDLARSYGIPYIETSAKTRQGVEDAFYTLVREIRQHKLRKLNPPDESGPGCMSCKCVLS

[2] = tested on: human lung cancer strain NCI-H441;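 note: cell proliferation inhibition after four days measured by CellTiter-Glo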
[3] = biological target: GDP-bound NRAS wild-type protein (Homo sapiens, UniProt P01111); assay: Binding to NRAS by surface plasmon resonance (SPR), Single Cycle Kinetics; conditions: for NRAS/KRAS (ratio of KD value for NRAS to KD value for KRAS) / NRAS/KRAS (KD ratio): SPR; for NRAS/KRAS (ratio of KD value for NRAS to KD value for KRAS): GDP-bound NRAS wild-type protein vs GDP-bound KRAS wild-type protein; for NRAS/KRAS (KD ratio): ratio of KD for GDP-bound NRAS wild-type protein to KD for KRAS; for NRAS/KRAS (ratio of KD value with respect to GDP-bound NRAS wild-type protein to KD value with respect to KRAS): SPR KD ratio NRAS/KRAS, class symbols
Chain of GDP-bound NRAS wild-type protein (P01111 whole entry): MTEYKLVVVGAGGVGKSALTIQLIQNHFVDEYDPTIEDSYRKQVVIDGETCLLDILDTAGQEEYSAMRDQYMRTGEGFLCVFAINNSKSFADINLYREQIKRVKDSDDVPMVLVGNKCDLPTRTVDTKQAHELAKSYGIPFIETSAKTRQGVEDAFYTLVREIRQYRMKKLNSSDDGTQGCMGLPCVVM

[4] = read-out: NCI-H441 IC50, NCI-H441 cell proliferation, 4 days, CellTiter-Glo

| SMILES | IC50 [2] [nM] | HRAS/KRAS (ratio of KD value for HRAS to KD value for KRAS) [1] | NRAS/KRAS (ratio of KD value for NRAS to KD value for KRAS) [3] | other results |
| --- | --- | --- | --- | --- |
| CC[C@H](C)[C@@H]1NC(=O)[C@H](CC(C)C)N(C)C(=O)C[C@@H](C(=O)N2CCOCC2)N(C)C(=O)[C@H](C2CCCC2)N(C)C(=O)C2(CCC2)NC(=O)[C@@H]2[C@@H](OCC3CCCC3)CCN2C(=O)[C@H](CCc2cc(F)c(C(F)(F)F)c(F)c2)NC(=O)CN(C)C(=O)[C@H](Cc2ccc(C(F)(F)F)cc2)N2CCCCC[C@@H](C2=O)N(C)C(=O)CN(C)C1=O [PP1011] | 314 | B (a compound having 3 or more and less than 10 is denoted as B) | A (a compound having 10 or more and less than 20 is denoted as A) |  |
| CCO[C@@H]1C[C@H]2C(=O)NC3(CCC3)C(=O)N(C)[C@@H](C3CCCC3)C(=O)N(C)[C@H](C(=O)N(C)C)CC(=O)N(CC)[C@@H](CC(C)C)C(=O)N[C@@H]([C@@H](C)CC)C(=O)N(C)CC(=O)N(C)[C@H]3CC(C)=C(C)CN(C3=O)[C@@H](Cc3ccc(C(F)(F)F)cc3)C(=O)N(C)CC(=O)N[C@@H](CCc3cc(F)c(C(F)(F)F)c(F)c3)C(=O)N2C1 [PP1051] | 286 | C (A compound having a KD ratio of 0.1 or more and less than 3 is denoted as C) | C (A compound having a KD ratio of 0.1 or more and less than 3 is denoted as C) |  |
| CCO[C@@H]1C[C@H]2C(=O)NC3(CCC3)C(=O)N(C)[C@@H](C3CCCC3)C(=O)N(C)[C@H](C(=O)N3CCOCC3)CC(=O)N(C)[C@@H](Cc3ccccc3)C(=O)N[C@@H]([C@@H](C)CC)C(=O)N(C)CC(=O)N(C)[C@H]3CCCCCN(C3=O)[C@@H](Cc3ccc(F)cc3)C(=O)N(C)CC(=O)N[C@@H](CCc3cc(F)c(C(F)(F)F)c(F)c3)C(=O)N2C1 [PP1181] | 26.3 | B (a compound having 3 or more and less than 10 is denoted as B) | B (a compound having 3 or more and less than 10 is denoted as B) |  |
| CCO[C@@H]1C[C@H]2C(=O)NC3(CCC3)C(=O)N(C)[C@@H](C3CCCC3)C(=O)N(C)[C@H](C(=O)N(CC)CC)CC(=O)N(C)[C@@H](CC(C)C)C(=O)N[C@@H]([C@@H](C)CC)C(=O)N(C)CC(=O)N(C)[C@H]3C/C=C\CCN(C3=O)[C@@H](Cc3ccc(C)cc3)C(=O)N(C)CC(=O)N[C@@H](CCc3ccc(C(F)(F)F)c(OC)c3)C(=O)N2C1 [PP1851] |  |  |  | HRAS/KRAS (KD ratio) [1]: A (a compound having 10 or more and less than 20 is denoted as A); IC50 [2, 4]: 165 nM; NRAS/KRAS (KD ratio) [3]: A (a compound having 10 or more and less than 20 is denoted as A) |
| CCO[C@@H]1C[C@H]2C(=O)NC3(CCC3)C(=O)N(C)[C@@H](C3CCCC3)C(=O)N(C)[C@H](C(=O)N(CC)CC)CC(=O)N(C)[C@@H](CC(C)C)C(=O)N[C@@H]([C@@H](C)CC)C(=O)N(C)CC(=O)N(C)[C@H]3C/C=C\CCN(C3=O)[C@@H](Cc3ccc(C)cc3)C(=O)N(C)CC(=O)N[C@@H](CCc3ccc(C(F)(F)F)c(OC)c3)C(=O)N2C1 [PP1887] |  |  |  | HRAS/KRAS (KD ratio) [1]: B (a compound having 3 or more and less than 10 is denoted as B); IC50 [2, 4]: 19.2 nM; NRAS/KRAS (KD ratio) [3]: A (a compound having 10 or more and less than 20 is denoted as A) |
| CCC[C@H]1C(=O)N[C@@H]([C@@H](C)CC)C(=O)N(C)CC(=O)N(C)[C@H]2C/C=C\CCN(C2=O)[C@@H](Cc2ccc(C)cc2)C(=O)N(C)CC(=O)N[C@@H](CCc2cc(F)c(C(F)(F)F)c(F)c2)C(=O)N2C[C@H](OCC)C[C@H]2C(=O)NC2(CC(C)(C)C2)C(=O)N(C)[C@@H](C(CC)CC)C(=O)N(C)[C@H](C(=O)N(C)C)CC(=O)N1C [PP2064] | 13.6 | A (a compound having 10 or more and less than 20 is denoted as A) | A (a compound having 10 or more and less than 20 is denoted as A) |  |
| CCCOC[C@H]1C(=O)N[C@@H]([C@@H](C)CC)C(=O)N(C)CC(=O)N(C)[C@H]2C/C=C\CCN(C2=O)[C@@H](Cc2ccc(C)cc2)C(=O)N(C)CC(=O)N[C@@H](CCc2ccc(C(F)(F)F)c(Cl)c2)C(=O)N2C[C@H](CC)C[C@H]2C(=O)NC2(CC(C)(C)C2)C(=O)N(C)[C@@H](C2CCCC2)C(=O)N(C)[C@H](C(=O)N(C)C)CC(=O)N1C [PP2235] | 22.1 | A (a compound having 10 or more and less than 20 is denoted as A) | A (a compound having 10 or more and less than 20 is denoted as A) |  |
| CCC[C@H]1C(=O)N[C@@H]([C@@H](C)CC)C(=O)N(C)CC(=O)N(C)[C@H]2C/C=C\CCN(C2=O)[C@@H](CC2CCCCC2)C(=O)N(C)CC(=O)N[C@@H](CCc2ccc(C(F)(F)F)c(OC)c2)C(=O)N2C[C@H](OCC)C[C@H]2C(=O)N(C)C2(CCC2)C(=O)N(C)[C@@H](C(CC)CC)C(=O)N(C)[C@H](C(=O)N(C)C)CC(=O)N1C [PP2333] | 44.7 | A (a compound having 10 or more and less than 20 is denoted as A) | A (a compound having 10 or more and less than 20 is denoted as A) |  |
| CCO[C@@H]1C[C@H]2C(=O)NC3(CC(C)(C)C3)C(=O)N(C)[C@@H](C3CCCC3)C(=O)N(C)[C@H](C(=O)N(C)C)CC(=O)N(C)[C@@H](CC(C)C)C(=O)N[C@@H]([C@@H](C)CC)C(=O)N(C)CC(=O)N(C)[C@H]3C/C=C\CCN(C3=O)[C@@H](Cc3ccc(C)c(F)c3)C(=O)N(C)CC(=O)N[C@@H](CCc3ccc(C(F)(F)F)c(OC)c3)C(=O)N2C1 [PP2689] |  |  |  | HRAS/KRAS (ratio of KD value with respect to GDP-bound HRAS wild-type protein to KD value with respect to KRAS) [1]: B (a compound having 3 or more and less than 10 is denoted as B); IC50 ([2]; read-out: NCI-H441 IC50, NCI-H441 cells, four days, CellTiter-Glo): 6.2 nM; NRAS/KRAS (ratio of KD value with respect to GDP-bound NRAS wild-type protein to KD value with respect to KRAS) [3]: A (a compound having 10 or more and less than 20 is denoted as A) |

Continued, in another order:

| IC50 [2] [nM] | SMILES | HRAS/KRAS (ratio of KD value for HRAS to KD value for KRAS) [1] | NRAS/KRAS (ratio of KD value for NRAS to KD value for KRAS) [3] | other results |
| --- | --- | --- | --- | --- |
| 100 | CC[C@H](C)[C@@H]1NC(=O)[C@H](Cc2cccc(Cl)c2)N(C)C(=O)C[C@@H](C(=O)N2CCOCC2)N(C)C(=O)[C@H](C2CCCC2)N(C)C(=O)C2(CCCC2)NC(=O)[C@@H]2CCCN2C(=O)[C@H](CCc2ccc(C(F)(F)F)c(Cl)c2)NC(=O)CN(C)C(=O)[C@H](Cc2ccc(F)cc2)N2CCCCC[C@@H](C2=O)N(C)C(=O)CN(C)C1=O [PP0963] | B (a compound having 3 or more and less than 10 is denoted as B) | B (a compound having 3 or more and less than 10 is denoted as B) |  |
| 296 | CCO[C@@H]1C[C@H]2C(=O)NC3(CCC3)C(=O)N(C)[C@@H](C3CCCC3)C(=O)N(C)[C@H](C(=O)N(C)C)CC(=O)N(CC)[C@@H](CC(C)C)C(=O)N[C@@H]([C@@H](C)CC)C(=O)N(C)CC(=O)N(C)[C@H]3CC(C)=CCN(C3=O)[C@@H](Cc3ccc(C(F)(F)F)cc3)C(=O)N(C)CC(=O)N[C@@H](CCc3cc(F)c(C(F)(F)F)c(F)c3)C(=O)N2C1 [PP1037] | C (A compound having a KD ratio of 0.1 or more and less than 3 is denoted as C) | C (A compound having a KD ratio of 0.1 or more and less than 3 is denoted as C) |  |
| 48.3 | CCO[C@@H]1C[C@H]2C(=O)NC3(CCC3)C(=O)N(C)[C@@H](C3CCCC3)C(=O)N(C)[C@H](C(=O)N3CCCC3)CC(=O)N(C)[C@@H](CC)C(=O)N[C@@H]([C@@H](C)CC)C(=O)N(C)CC(=O)N(C)[C@H]3C/C=C\CCN(C3=O)[C@@H](CC3CCC(F)(F)CC3)C(=O)N(C)CC(=O)N[C@@H](CCc3cc(F)c(C(F)(F)F)c(F)c3)C(=O)N2C1 [PP1442] |  |  | HRAS/KRAS (ratio of KD value for HRAS to KD value for KRAS) ([1]; KD ratio class): A (a compound having 10 or more and less than 20 is denoted as A); NRAS/KRAS (ratio of KD value for NRAS to KD value for KRAS) ([3]; KD ratio class): A (a compound having 10 or more and less than 20 is denoted as A) |
| 5.7 | CCO[C@@H]1C[C@H]2C(=O)NC3(CC(C)(C)C3)C(=O)N(C)[C@@H](C3CCCC3)C(=O)N(C)[C@H](C(=O)N(C)C)CC(=O)N(C)[C@@H](CC(C)C)C(=O)N[C@@H]([C@@H](C)CC)C(=O)N(C3CC3)CC(=O)N(C)[C@H]3C/C=C\CCN(C3=O)[C@@H](Cc3ccc(C)cc3)C(=O)N(C)CC(=O)N[C@@H](CCc3cc(F)c(C(F)(F)F)c(F)c3)C(=O)N2C1 [PP2109] | A (a compound having 10 or more and less than 20 is denoted as A) | A (a compound having 10 or more and less than 20 is denoted as A) |  |
| 18.7 | CCCOC[C@H]1C(=O)N[C@@H]([C@@H](C)CC)C(=O)N(C)CC(=O)N(C)[C@H]2C/C=C\CCN(C2=O)[C@@H](Cc2ccc(C)cc2)C(=O)N(C)CC(=O)N[C@@H](CCc2cc(F)c(C(F)(F)F)c(F)c2)C(=O)N2C[C@H](CCC)C[C@H]2C(=O)NC2(CCC2)C(=O)N(C)[C@@H](C2CCCC2)C(=O)N(C)[C@H](C(=O)N(C)C)CC(=O)N1C [PP2232] | A (a compound having 10 or more and less than 20 is denoted as A) | A (a compound having 10 or more and less than 20 is denoted as A) |  |
| 29.1 | CCO[C@@H]1C[C@H]2C(=O)NC3(CCC3)C(=O)N(C)[C@@H](C3CCCC3)C(=O)N(C)[C@H](C(=O)N(C)C)CC(=O)N(C)[C@@H](CC3CCCC3)C(=O)N[C@@H]([C@@H](C)CC)C(=O)N(C)CC(=O)N(C)[C@H]3C/C=C\CCN(C3=O)[C@@H](Cc3ccc(C)cc3)C(=O)N(C)CC(=O)N[C@@H](CCc3ccc(C(F)(F)F)c(C4CC4)c3)C(=O)N2C1 [PP2681] |  |  | HRAS/KRAS (ratio of KD value with respect to GDP-bound HRAS wild-type protein to KD value with respect to KRAS) [1]: A (a compound having 10 or more and less than 20 is denoted as A); NRAS/KRAS (ratio of KD value with respect to GDP-bound NRAS wild-type protein to KD value with respect to KRAS) [3]: A (a compound having 10 or more and less than 20 is denoted as A) |
